Patent publication US8288375B2, “Fungicidal bicyclic pyrazoles” (E.I. du Pont de Nemours and Company, priority 2007, dated 2012)

Assays:
Type in all cases: in vivo
Fusarium graminearum = assay: whole plant or invertebrate; details: for Test C disease control rating: 200 ppm test suspension
Phytophthora infestans = assay: whole plant or invertebrate; details: for Test J disease control rating: 200 ppm test suspension
Septoria tritici = assay: Test E: wheat leaf blotch, test suspension sprayed on wheat seedlings, disease rating; details: 200 ppm test suspension;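 further: 200 ppm unless marked * meaning 40 ppm or ** meaning 10 ppm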
Septoria nodorum = assay: Test D: wheat glume blotch, test suspension sprayed on wheat seedlings, disease rating; details: 200 ppm test suspension
Pythium aphanidermatum = assay: Test L: bluegrass pythium blight, test suspension sprayed on bluegrass seedlings, disease rating; details: 200 ppm test suspension;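 further: 200 ppm unless marked * meaning 40 ppm or ** meaning 10 ppm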
[1] = tested on: Puccinia recondite f sp. tritici; assay: Test B: wheat leaf rust, test suspension sprayed on wheat seedlings, disease rating; details: 200 ppm test suspension;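 further: 200 ppm unless marked * meaning 40 ppm or ** meaning 10 ppm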
[2] = tested on: Erysiphe graminis f. sp. tritici; assay: Test A: wheat powdery mildew, test suspension sprayed on wheat seedlings, disease rating; details: 200 ppm test suspension, 100 = 100% disease control, 0 = no control

Compound | Test C disease control rating (Fusarium graminearum) [%] | Test J disease control rating (Phytophthora infestans) [%] | Test E disease control rating (Septoria tritici) [%] | Test D disease control rating (Septoria nodorum) [%] | Test L disease control rating (Pythium aphanidermatum) [%] | Test B disease control rating [1] [%] | Test A disease control rating [2] [%] | pest or weed control at 200 ppm (Fusarium graminearum; Fusarium graminearum, in Triticum aestivum, 192 h, read-out: Test C disease control rating) [%] | pest or weed control at 200 ppm (Phytophthora infestans; Phytophthora infestans, in Solanum lycopersicum, 120 h, read-out: Test J disease control rating) [%] | pest or weed control at 200 ppm (Septoria tritici; Zymoseptoria tritici, 504 h) [%] | pest or weed control at 200 ppm (Septoria nodorum; Parastagonospora nodorum, 216 h) [%] | pest or weed control at 200 ppm (Pythium aphanidermatum; Pythium aphanidermatum, 120 h) [%] | pest or weed control at 200 ppm ([1]; Puccinia, 192 h) [%] | pest or weed control at 200 ppm ([2]; Blumeria graminis, 192 h) [%]
CC(C)Nc1nccc(-c2c(-c3ccccc3F)nn3c2CCC3)n1 [compound 97] | 100 | 96 | 61 | 82 | 100 | 55 | 0 |  |  |  |  |  |  | 
CC1CN1c1nccc(-c2c(-c3ccc(F)cc3)nn3c2CCCC3)n1 (centres unmarked) [compound 81] | 98 | 99 | 100 | 87 | 95 | 98 | 0 |  |  |  |  |  |  | 
CC(COC(=O)c1cccnc1)Nc1nccc(-c2c(-c3ccc(F)cc3)nn3c2CCCC3)n1 (centres unmarked) [compound 68] | 99 | 95 | 93 | 95 | 100 | 98 | 0 |  |  |  |  |  |  | 
CC(C)Nc1nccc(-c2c(-c3cccc(F)c3)nn3c2CCC3)n1 [compound 102] | 100 | 96 | 100 | 97 | 99 | 92 | 73 |  |  |  |  |  |  | 
CCC(CO)Nc1nccc(-c2c(-c3ccc(F)cc3)nn3c2CCCC3)n1 (centres unmarked) [compound 31] | 94 | 80 | 98 | 78 | 99 | 95 | 0 |  |  |  |  |  |  | 
CC(C)(CO)Nc1nccc(-c2c(-c3ccc(F)cc3)nn3c2CCCC3)n1 [compound 30] | 92 | 47 | 93 | 69 | 0 | 91 | 0 |  |  |  |  |  |  | 
c1cc(-c2c(-c3ccsc3)nn3c2CCCC3)nc(NC2CC2)n1 [compound 61] | 98 | 97 | 98 | 99 | 99 | 94 | 79 |  |  |  |  |  |  | 
CC(C)Nc1nccc(-c2c(-c3ccccc3F)nn3c2CCCC3)n1 [compound 36] | 99 | 90 | 96 | 96 | 99 | 91 | 0 |  |  |  |  |  |  | 
COCC(C)Nc1nccc(-c2c(-c3ccc(F)cc3F)nn3c2CSC3)n1 (centres unmarked) [Compound 83, 4-[2-(2,4-difluorophenyl)-4H,6H-pyrazolo[1,5-c]thiazol-3-yl]-N-(2-methoxy-1-methylethyl)-2-pyrimidinamine] |  |  |  |  |  |  |  | 0 | 93 | 67 | 60 | 99 | 0 | 0
COc1nccc(-c2c(-c3ccc(F)cc3)nn3c2CCCC3)n1 [Compound 105] | 94 | 73 | 100 | 78 | 0 | 94 | 0 |  |  |  |  |  |  | 
Fc1ccc(-c2nn3c(c2-c2ccnc(N4CCC4)n2)CCCC3)cc1 [compound 82] | 96 | 99 | 97 | 60 | 0 | 91 | 81 |  |  |  |  |  |  | 
